Patent US12336991B2, “Factor XIIA inhibitors” (UNIVERSITY OF LEEDS, priority 2018, dated 2025)

Tests used:
Format in all cases: biochemical
FXa = FXa (Homo sapiens, UniProt P00742); assay: Determination of selectivity: FXa inhibition, chromogenic substrate S2765 assay; conditions: fold selectivity for FXIIa over FXa
Summary of the method: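 Human FXa (5 nM) preincubated with compound (top 500 μM, 5% DMSO) 10 min at 37 °C in 50 mM Tris, 137 mM NaCl pH 7.4, then S2765 ([…]) added; A405 kinetics over 3 h at 37 °C. IC50 from initial rates, converted to Ki via Cheng-Prusoff.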

thrombin = target: T1, thrombin (Homo sapiens, UniProt P00734); assay: Determination of selectivity: thrombin inhibition, chromogenic substrate GPR assay; conditions: fold selectivity for FXIIa over thrombin
T1 construct: FXa (5 nM) and thrombin (5 nM)
Summary of the method: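 Thrombin (5 nM) preincubated with compound 10 min at 37 °C in 50 mM Tris, 137 mM NaCl, pH 7.4, 5% DMSO, then GPR substrate ([…]) added. Absorbance at 405 nm read kinetically for 3 h; IC50 from initial rates, converted to Ki via Ki=IC50/(1+[S]/Km).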

FXIIa = target: T2, FXIIa (Homo sapiens, UniProt P00748); assay: Determination of Factor XIIa inhibition, chromogenic substrate S-2302 assay; conditions: human FXIIa alpha
T2 sequence (P00748 373-615 limits assumed): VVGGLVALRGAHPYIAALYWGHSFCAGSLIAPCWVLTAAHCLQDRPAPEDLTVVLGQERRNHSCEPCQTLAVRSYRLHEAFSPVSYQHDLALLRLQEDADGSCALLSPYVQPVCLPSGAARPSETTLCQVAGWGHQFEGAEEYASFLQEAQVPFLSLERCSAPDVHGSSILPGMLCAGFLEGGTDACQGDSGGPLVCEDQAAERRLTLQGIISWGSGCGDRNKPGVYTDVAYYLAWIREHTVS
T2 sequence (P00748 20-372 partner limits assumed): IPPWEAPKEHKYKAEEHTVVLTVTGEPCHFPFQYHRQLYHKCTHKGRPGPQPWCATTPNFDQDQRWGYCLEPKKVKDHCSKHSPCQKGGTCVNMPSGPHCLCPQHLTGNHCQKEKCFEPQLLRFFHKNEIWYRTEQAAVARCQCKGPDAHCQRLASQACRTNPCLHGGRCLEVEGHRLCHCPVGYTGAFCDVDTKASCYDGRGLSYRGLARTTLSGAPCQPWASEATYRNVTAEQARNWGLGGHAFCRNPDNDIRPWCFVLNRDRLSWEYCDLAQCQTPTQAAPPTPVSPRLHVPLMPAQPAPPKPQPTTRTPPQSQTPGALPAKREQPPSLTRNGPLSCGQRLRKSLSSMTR
Summary of the method: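 FXIIa (10 nM) preincubated with compound 10 min at 37° C. in 50 mM Tris, 137 mM NaCl pH 7.4, 5% DMSO, top concentration 500 μM, then S-2302 added ([…]). Absorbance at 405 nm read kinetically for 3 h; IC50 from initial rates, converted to Ki by Cheng-Prusoff.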

FXa, sequence (P00742 235-488 limits assumed): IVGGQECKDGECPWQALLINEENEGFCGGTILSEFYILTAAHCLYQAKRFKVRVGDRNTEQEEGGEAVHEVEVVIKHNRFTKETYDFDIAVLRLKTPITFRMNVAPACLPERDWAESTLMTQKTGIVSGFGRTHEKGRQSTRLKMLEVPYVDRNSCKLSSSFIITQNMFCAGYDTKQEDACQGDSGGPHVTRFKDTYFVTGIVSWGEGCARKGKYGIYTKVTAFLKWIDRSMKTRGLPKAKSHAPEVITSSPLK
FXa, sequence (P00742 41-179 partner limits assumed): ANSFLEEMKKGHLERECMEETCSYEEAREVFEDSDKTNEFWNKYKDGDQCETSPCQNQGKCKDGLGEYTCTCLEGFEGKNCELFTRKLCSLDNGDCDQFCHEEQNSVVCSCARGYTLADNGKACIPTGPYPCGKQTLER

| SMILES | FXa (human)/FXIIa alpha (human) (FXa) | Thrombin (human)/FXIIa alpha (human) (thrombin) | Ki (FXIIa) |
| --- | --- | --- | --- |
| Cn1nnc2cc(CNC(=O)[C@@H]3CC(Cc4ccccc4Br)CN3C(=O)[C@H]3C[C@@H](c4ccccc4)CN3)ccc21 (stereo partly drawn) [Example M05329] | ∘∘ | ++ (fold selectivity value of 10 to 100) | > 2000 nM |
| COc1ccc(C[C@@H]2C[C@@H](C(=O)NCc3ccc4c(c3)nnn4C)N(C(=O)[C@H]3CC(c4ccc(C(F)(F)F)cc4)CN3)C2)cc1 (stereo partly drawn) [Example M05345] | ∘∘ | ++ (fold selectivity value of 10 to 100) | > 2000 nM |
| Cn1nnc2cc(CNC(=O)[C@@H]3C[C@@H](Cc4cccc(Cl)c4)CN3C(=O)[C@H]3C[C@@H](c4ccccc4)CN3)ccc21 [Example M05335] | ∘∘ | ++ (fold selectivity value of 10 to 100) | > 2000 nM |
| Cn1nnc2cc(CNC(=O)[C@@H]3C[C@@H](Cc4ccc(F)c(F)c4)CN3C(=O)C3C[C@@H](c4ccccc4)CN3)ccc21 (stereo partly drawn) [Example M05325] | ∘∘ | ++ (fold selectivity value of 10 to 100) | > 2000 nM |
| Cn1nnc2cc(CNC(=O)[C@@H]3C[C@H](C(F)(F)F)CN3C(=O)[C@H]3C[C@@H](c4ccccc4)CN3)ccc21 [Example M05280] | ∘∘ | ++ (fold selectivity value of 10 to 100) | > 2000 nM |
| COc1ccc(C[C@@H]2C[C@@H](C(=O)NCc3ccc4c(c3)nnn4C)N(C(=O)[C@H](N)CCC(=O)N3CCCC3)C2)cc1 [Example M05272] | ∘∘∘ | +++ (fold selectivity values greater than 100) | < 200 nM |
| Cn1nnc2cc(CNC(=O)[C@@H]3CC(Cc4ccnc(C(F)(F)F)c4)CN3C(=O)[C@H](N)CCC(=O)N3CCCC3)ccc21 (stereo partly drawn) [Example M05303] | ∘∘∘ | ++ (fold selectivity value of 10 to 100) | 200 to 2000 nM |
| COc1ccc(C[C@@H]2C[C@@H](C(=O)NCc3ccc4c(c3)nnn4C)N(C(=O)C3NCCc4cc(Br)ccc43)C2)cc1 (stereo partly drawn) [Example M05470] | ∘∘∘ | +++ (fold selectivity values greater than 100) | < 200 nM |
| Cn1nnc2cc(CNC(=O)[C@@H]3C[C@@H](Cc4ccncc4)CN3C(=O)[C@@H](CCC(=O)N3CCCC3)NS(=O)(=O)c3ccccc3)ccc21 [Example M05290] | ∘∘ | +++ (fold selectivity values greater than 100) | > 2000 nM |
| Cn1ccnc1CC1C[C@@H](C(=O)NCc2ccc3c(c2)nnn3C)N(C(=O)[C@H](N)CCC(=O)N2CCCC2)C1 (stereo partly drawn) [Example M05297] | ∘∘∘ | +++ (fold selectivity values greater than 100) | 200 to 2000 nM |
| COc1ccc(C[C@@H]2C[C@@H](C(=O)NCc3ccc4c(c3)nnn4C)N(C(=O)[C@H](N)CCC(=O)N3CCNC[C@H]3C)C2)cc1 [Example M05443] | ∘∘∘ | +++ (fold selectivity values greater than 100) | 200 to 2000 nM |
| Cn1nnc2cc(CNC(=O)[C@@H]3C[C@@H](Cc4ccncc4)CN3C(=O)[C@H](N)CCC(=O)N3CCCC3)ccc21 [Example M05189] | ∘∘∘ | +++ (fold selectivity values greater than 100) | 200 to 2000 nM |
| Cn1nnc2cc(CNC(=O)[C@@H]3C[C@H](Nc4cnccn4)CN3C(=O)[C@H](N)CCC(=O)N3CCCC3)ccc21 [Example M05243] | ∘∘ | ++ (fold selectivity value of 10 to 100) | > 2000 nM |
| COc1ccc(C[C@@H]2C[C@@H](C(=O)NCc3nc4cnccc4[nH]3)N(C(=O)[C@H](N)CCC(=O)N3CCCC3)C2)cc1 [Example M00973] | ∘∘∘ | +++ (fold selectivity values greater than 100) | > 2000 nM |
| Cn1nnc2cc(CNC(=O)[C@@H]3CC(Cc4ccc(F)c(Cl)c4F)CN3C(=O)[C@H](N)CCC(=O)N3CCCC3)ccc21 (stereo partly drawn) [Example M05295] | ∘∘∘ | +++ (fold selectivity values greater than 100) | 200 to 2000 nM |
| COc1ccc(CC2C[C@@H](C(=O)NCc3ccc4c(c3)nnn4C)N(C(=O)[C@H]3C[C@@H](c4ccccc4)CN3)C2)cc1OC (stereo partly drawn) [Example M05348] | ∘∘∘ | +++ (fold selectivity values greater than 100) | 200 to 2000 nM |
| COc1ccc(C[C@@H]2C[C@@H](C(=O)NCc3ccc4c(c3)nnn4C)N(C(=O)C3NCCc4cc(Cl)ccc43)C2)cc1 (stereo partly drawn) [Example M05430] | ∘∘∘ | +++ (fold selectivity values greater than 100) | 200 to 2000 nM |
| COc1cc(CNC(=O)[C@@H]2C[C@H](O)CN2C(=O)[C@H](N)CCc2ccccc2)ccc1CN [Example M05056] | ∘∘∘ | +++ (fold selectivity values greater than 100) | 200 to 2000 nM |

The remaining lines, values ahead:

| FXa (human)/FXIIa alpha (human) (FXa) | Thrombin (human)/FXIIa alpha (human) (thrombin) | Ki (FXIIa) | SMILES |
| --- | --- | --- | --- |
| ∘∘∘ | + (fold selectivity values less than 10) | < 200 nM | COc1ccc(C[C@@H]2C[C@@H](C(=O)NCc3cc4ccncc4[nH]3)N(C(=O)[C@H](N)CCc3ccccc3)C2)cc1 [Example M00954] |
| ∘∘ | ++ (fold selectivity value of 10 to 100) | > 2000 nM | COC(=O)N[C@H]1C[C@@H](C(=O)NCc2ccc3c(c2)nnn3C)N(C(=O)[C@H](N)CCc2ccccc2)C1 [Example M05207] |
| ∘∘ | ++ (fold selectivity value of 10 to 100) | > 2000 nM | Cn1nnc2cc(CNC(=O)[C@@H]3C[C@H](NC(=O)CCc4ccccc4)CN3C(=O)[C@H](N)CCc3ccccc3)ccc21 [Example M05195] |
| ∘∘ | ++ (fold selectivity value of 10 to 100) | 200 to 2000 nM | Nc1cc(CNC(=O)[C@@H]2C[C@@](O)(c3ccc(F)c(F)c3)CN2C(=O)[C@H](N)CCc2ccccc2)ccn1 [Example M05127] |
| ∘∘ | ++ (fold selectivity value of 10 to 100) | > 2000 nM | CC(=O)N(Cc1ccccc1)[C@H]1C[C@@H](C(=O)NCc2ccc3c(c2)nnn3C)N(C(=O)[C@H](N)CCc2ccccc2)C1 [Example M05161] |
